In patent EP2201946A1, “PAI-1 PRODUCTION INHIBITOR” (Institute of Medicinal Molecular Design, Inc., priority 2007, dated 2009):

Columns and labels:
[1] = system: Chronic Obstructive Pulmonary Disease (COPD) model; assay: Collagen accumulation in alveoli of guinea pigs exposed to cigarette smoke (Masson-trichrome, image analysis); assay type: in vivo; settings: smoke of 40 cigarettes a day for 25 days, oral once a day for 25 days, compound (1) 30 or 100 mg/kg/day, prednisolone 10 mg/kg/day (Fig. 2)
Method: Using the smoking exposure system (INH06-CIG01A, MIPS Inc.), 6-week old guinea pigs (Std: male Hartley, Japan SLC, Inc.) were exposed to smoke of 40 cigarettes (Peace (Registered Trademark), Japan Tobacco, Inc.) a day (20 cigarettes twice) for 25 continuous days (Chronic Obstructive Pulmonary Disease (COPD) model group: Control group: n=10). To theseguinea pigs, from the day of exposure to the smoke of tobacco, the compound (1) (30 mg/kg/day or 100 mg/kg/day) or prednisolone (10 mg/kg/day) was continuously administered orally once a day for 25 days (Compound (1) 30 mg administered group: n=5, Compound (1) 100 mg administered group: n=5, Prednisolone administered group: n=5). Furthermore, as a normal group, guinea pigs (n=5) exposed to air without the administration of the compound (1) and prednisolone were prepared. On the following day of the last exposure, after preparing paraffin sections in the lungs of each guinea pig, collagen was stained by the Masson-trichrome method, and the accumulations of collagen in the alveoli were measured by the area rate with the image analysis. […] Next, the above paraffin section was stained by the immunostaining method using an anti PAI-1 antibody (PAI-1 H-135; Santa Cruz; 250-fold dilution), and the ratio of PAI-1 expression cells to the total cell numbers infiltrated in the lung was measured. […]

[2] = system: TGF-β induced PAI-1 production; assay: TGF-β induced PAI-1 production in HepG2 cells (Human Serpin E1/PAI-1 DuoSet); assay type: cell-based; settings: Compound Concentration : 1μM, TGF-β1 1ng/mL, 24 hours
Method: HepG2 cells were seeded on a 96-well culture plate by 2x10^4 cells/well, and were incubated for 24 hours in the MEM medium containing 1% NEAA (Non-Essential Amino Acids), 1mM pyruvate, and 10% FBS. Then, the medium was changed to a MEM medium containing 1% NEAA, 1mM pyruvate and 1% FBS, and the cells were further incubated for 24 hours. Subsequently, after the medium was changed to a MEM medium containing 1% NEAA, 1mM pyruvate and 1% FBS, and then the cells were treated with the test substances (final concentration: 1 µM or 0.1 µM) for one hour, TGF-β1 (final concentration.1ng/mL) was added and the cells were further incubated for 24 hours. As controls, a culture solution added TGF-β1 only and a culture solution cultured without neither the test substances nor TGF-β1 were prepared. After the incubation, the PAI-1 amount was measured using Human Serpin E1/PAI-1 DuoSet (R&D Systems). The PAI-1 amount when treated with TGF-β1 only being "100%", and the PAI-1 amount when treated without neither the test substances nor TGF-β1 being "0%", the PAI-1 inhibition ratios of each test substance were calculated. IC50 of the compound (2) was about 50 nM.

[3] = system: TGF-β induced PAI-1 production; assay: TGF-β induced PAI-1 production in HT1080 cells (Western blotting); assay type: cell-based; settings: TGF-β1 10 ng/mL, 6-hours incubation
Method: After incubating HT1080 cells for 48 hours in the MEM medium containing 10%FBS (Fetal Bovine Serum), the medium was changed to a MEM medium containing 1% FBS, and TGF-β1 (final concentration: 10 ng/mL) only, or TGF-β1 (final concentration: 10 ng/mL) and the test substances were added and incubated. As a control, a culture solution without neither TGF-β1 nor the test substances was prepared. After 6-hours incubation, the culture fluids were collected, and the PAI-1 amounts in the culture fluids were measured by the Western blotting. The PAI-1 amount when TGF-β1 only was added being "100%," and the PAI-1 amount in the control being "0%," PAI-1 I amounts at each concentration of the test substances (PAI-1 inhibition ratios) were calculated, and the concentrations of the compounds, which inhibited PAI-1 production to 50% (IC50) in amount, were obtained.

IC50 [3] [nM]	SMILES	accumulation of collagen in the alveoli (area rate) [1]	Inhibition Ratio (%) [2] [%]
	C[C@]12C=CC(=O)C=C1CC[C@@H]1[C@@H]2[C@@H](O)C[C@@]2(C)[C@H]1CC[C@]2(O)C(=O)CO [prednisolone]	not able to inhibit the accumulation of collagen	
83	O=C(Nc1cc(C(F)(F)F)ccc1C(F)(F)F)c1cc(Br)ccc1O [(3)]		>90
